Test results from patent US20090093669A1, “MAGNETOPHORESIS APPARATUS AND METHOD OF USE” (priority 2007, published 2009).
Where two headings read alike, the source gives them in different places.

Key:
[1] = assay type: in vitro ADME, beef
Text: Each individual magnet had: • a residual induction value of at least 1,500 mT (magnetization of 1,200,000 amp/meter); • diameter of about 12.7 mm; and a • thickness of about 6.35 mm.
The magnets were arranged in an alternating polarity sequence on an iron flux ring (the iron flux ring is shaped like a washer). This positioning increased the field in the direction away from the flux ring. This arrangement is similar to the standard QuadraBloc® sold by Gradient Technologies, LLC. The magnetic field at the center of a North Pole of the magnets was about 530 mT. The array was placed over the drug such that the face of the magnets (away from the flux ring and towards the skin) covered the drug solution applied to the test material or skin. This configuration is described in U.S. applications Ser. No. 11/469,346 which is incorporated by reference herein.
The TENS unit used in the following experiments was set for 20 volts with a pulse rate of 100 Hz and a pulse width of 200 microseconds. Other usable settings will influence the results as the strength of the field is directly proportional to all of the variables and increasing any of the variables will drive the drug faster. The settings are important for treating underlying pain; however, when drugs are being applied at the same time as the TENS is being utilized to treat pain, it generally is not desirable to use the highest settings. […]
The test system used to determine the rates of dispersion in tissue was commercial homogenized beef tissue with various levels of lipids (fat) to cells compressed into 3 mm sheets. […] The beef tissue was purchased with selected levels of fat present in the samples as measured by the producer. […] The drug or formulation to be tested was placed on top of the tissue stack and then after a specified time the stack was separated and the individual 3 mm layers (bologna sheet/slice) were analyzed for the drug content. The drug migration was analyzed by extracting the tissue at the various depths with solvents and then quantifying the drug in that sample. […]

[2] = TENS electric field applied (20 volts, 100 Hz, 200 microseconds), fat free/low fat beef tissue
[3] = magnetic field applied, fat free/low fat beef tissue
[4] = quadrapolar magnetic field applied (530 mT at surface), fat free/low fat beef tissue
[5] = control test, no applied field, fat free/low fat (lean) beef tissue, unit not given

enhancement of diffusion coefficient, TENS versus control (cattle)	enhancement of diffusion coefficient, magnetic field versus control (cattle)	Molecule	diffusion coefficient Dx [2] [mm^2/min]	enhancement of diffusion coefficient, magnetic field versus control [3]	diffusion coefficient Dx [4] [mm^2/min]	diffusion coefficient [5]	also measured
6-8 times	4-5 times	CCCCN1CCCCC1C(=O)Nc1c(C)cccc1C (stereo not drawn) [bupivacaine]	–	–	–	–	–
6-8 times	4-5 times	O=C(c1ccccc1)c1ccc2n1CCC2C(=O)O (stereo not drawn) [ketorolac]	–	–	–	–	–
–	–	CCN(CC)CC(=O)Nc1c(C)cccc1C [lidocaine]	0.12	about 1.5 times	0.04	0.027	enhancement of diffusion coefficient, TENS versus control (TENS field applied, fat free/low fat beef tissue): 4.4 times; increase in diffusion coefficient, magnets versus control (magnets applied, low fat beef tissue): 48%
–	–	insulin glargine	0.008	three and a half	0.007	0.002	–

Molecule	enhancement of diffusion coefficient, TENS versus control (cattle)	enhancement of diffusion coefficient, magnetic field versus control (cattle)	diffusion coefficient Dx [2] [mm^2/min]	enhancement of diffusion coefficient, magnetic field versus control [3]	diffusion coefficient Dx [4] [mm^2/min]	diffusion coefficient [5]	also measured
COc1cc(CNC(=O)CCCC/C=C/C(C)C)ccc1O [capsaicin]	15 times	–	0.30	4.5 times	0.09	–	depth of penetration (front) (TENS electric field, first 30 minutes, fat free tissue): 12 mm; time to totally penetrate the height of the stacks (TENS electric field, 15 mm stack, fat free tissue): 60 min; diffusion coefficient (cattle): 0.02; diffusion coefficient Dx (cattle, 0.075 %): 0.02 mm^2/min; depth of penetration (magnetic field, 30 minutes, fat free tissue): 7.5 mm; depth of penetration (magnetic field, end of 240 minutes, total tissue system, fat free tissue): 15 mm; rate of penetration, magnetic field versus control (magnetic field, fat free sample): doubled; depth of penetration (simple diffusion (control), 240 minutes, fat free tissue): 8 mm; depth of penetration (simple diffusion (control), after 30 minutes, fat free tissue): 4.5 mm; effect of TENS on the diffusion coefficient [1]: minimal effect; diffusion coefficient in lipid containing tissue versus lean tissue ([1]; cattle, 0.075 %): about 8 times; diffusion coefficient with magnets versus simple diffusion ([1]; cattle, 0.075 %): 3 times
